System: Ulva pertusa Kjellman
Conditions: for order of toxicity of the heavy metal, estimated by EC50: rank order among heavy metals, spore release, 96 hours
Protocol: The present inventors collected Ulva pertusa Kjellman from the coast of Ahnin in Korea, and the leaf (thallus) of Ulva pertusa Kjellman was cut to have a coin shape having a diameter of 6 mm, and dispensed in the plastic cell plate containing 10 ml artificial sea water (35%) medium (Coralife, Energy Savers, California. USA) supplemented with 1 mM KNO3 and 0.1 mM K2HPO4.
The toxicity test was then carried out by adding toxic materials (toxicants) into the medium, keeping the other environmental conditions constant. The used toxic materials and the target concentration are described in the following Table 1.
After cultivated for 96 hours, the thallus having the coin shape was collected, and the area with white color was measured by using the microscope (Axioscope) having a magnification of 400× and the image analysis system (MV200, Samsung, Korea).
The mother liquid of TBTO was prepared in acetone that was mixed with the sea water (0.01%); here an acetone control group in the same concentration was also tested. The toxicities of volatile organic compounds (VOC) [acetone, ethanol, formalin and methanol) were tested by adding aqueous volatile organic compounds (VOC) to the medium to achieve the target concentration.

| Compound | order of toxicity of the heavy metal, estimated by EC50 | order of toxicity of the volatile organic compound (VOC) (in vivo) | half effective concentration (EC50) (in vivo) [μl/L] |
| --- | --- | --- | --- |
| [Cd] [Cd, cadmium] | Cu>Cd>Zn>Pb |  |  |
| [Zn] [Zn, zinc] | Cu>Cd>Zn>Pb |  |  |
| [Cu] [Cu, copper] | Cu>Cd>Zn>Pb |  |  |
| CCO [ethanol] |  | formaline>methanol>ethanol>acetone |  |
| CC(C)=O [acetone] |  | formaline>methanol>ethanol>acetone |  |
| C=O [formaline] |  | formaline>methanol>ethanol>acetone | 0.788 |
| CO [methanol] |  | formaline>methanol>ethanol>acetone |  |
